Consider six compounds from the NIST ThermoML archive (doi:10.1021/je400498a).

For data set [1] the following is noted: for vapor or sublimation pressure: 298.15 K, Gas chromatography.
Data set [2] is described as follows: Molar enthalpy of transition or fusion. The following applies: Crystal; DSC.

Numbers after ± are expanded uncertainties.

Regarding `N[C@@H]1C[C@H]1c1ccccc1` (relative stereo) [trans-2-phenylcyclopropylamine], in data set [1] (Liquid), the “vapor or sublimation pressure” value is recorded as 0.028 ± 0.01 kPa.

For the compound `CC(N)C12CC3CC(CC(C3)C1)C2` (centres undefined) [1-(adamantan-1-yl)ethan-1-amine], the “vapor or sublimation pressure” value in data set [1] (Liquid) is recorded as 0.003 ± 0.002 kPa.

Consider `CCCCCCCCCCCCN` [1-dodecanamine], for which the “vapor or sublimation pressure” value in data set [1] (Crystal) came out at 0.0016 ± 0.0002 kPa. Same read-out and setting: the value for `CCCCCCCCCCCCCCN` [1-tetradecanamine] was 0.00012 ± 8e-05 kPa. In the case of `CC(C)(N)Cc1ccccc1` [2-methyl-1-phenylpropan-2-amine], the “vapor or sublimation pressure” value in data set [1] (Liquid) was 0.035 ± 0.008 kPa.

Consider `NC12CC3CC(CC(C3)C1)C2` [tricyclo(3.3.1.1:3,7)decan-1-amine], for which the “Molar enthalpy of transition or fusion” value in data set [2] came out at 1.74 ± 0.12 kcal/mol. Also, the “vapor or sublimation pressure” value in data set [1] (Crystal) is on record as 0.0115 ± 0.0043 kPa; in data set [1] (Liquid), 0.021 ± 0.003 kPa. For the same compound, the Normal melting temperature in data set [1] (Crystal, DTA) turned out to be 204.2 ± 1.8 °C.
